Laboratory results: publication PMC11859928, “Design, Synthesis, and Antiproliferative Activity of Novel Indole/1,2,4-Triazole Hybrids as Tubulin Polymerization Inhibitors” (Pharmaceuticals, 2025)

How the values were obtained:
Type in all cases: cell-based, human
[1] = system: EKVX; experiment: NCI five-dose assay; settings: Non-small cell lung cancer
[2] = system: DU-145; experiment: NCI five-dose assay; settings: DU-145, Prostate cancer
[3] = system: SNB-19; experiment: NCI five-dose assay; settings: SNB-19, CNS cancer
[4] = system: OVCAR-8; experiment: NCI five-dose assay; settings: OVCAR-8, Ovarian cancer
[5] = system: OVCAR-4; experiment: NCI five-dose assay; settings: OVCAR-4, Ovarian cancer
[6] = system: ACHN; experiment: NCI five-dose assay; settings: Renal cancer
[7] = system: A498; experiment: NCI five-dose assay; settings: A498, Renal cancer
[8] = system: HT29; experiment: NCI five-dose assay; settings: HT29, Colon cancer
[9] = system: KM12; experiment: NCI five-dose assay; settings: KM12, Colon cancer
[10] = system: SW-620; experiment: NCI five-dose assay; settings: SW-620, Colon cancer
[11] = system: HOP-62; experiment: NCI five-dose assay; settings: HOP-62, Non-small cell lung cancer
[12] = system: SNB-75; experiment: NCI five-dose assay; settings: SNB-75, CNS cancer
[13] = system: OVCAR-3; experiment: NCI five-dose assay; settings: OVCAR-3, Ovarian cancer
[14] = system: Prostate cancer subpanel; experiment: NCI five-dose assay, subpanel mean
[15] = system: NCI-H460; experiment: NCI five-dose assay; settings: NCI-H460, Non-small cell lung cancer
[16] = system: MDA-MB-435; experiment: NCI five-dose assay; settings: MDA-MB-435, Melanoma
[17] = system: M14; experiment: NCI five-dose assay; settings: M14, Melanoma
[18] = system: NCI/ADR-RES; experiment: NCI five-dose assay; settings: Ovarian cancer
[19] = system: CAKI-1; experiment: NCI five-dose assay; settings: CAKI-1, Renal cancer
[20] = system: UO-31; experiment: NCI five-dose assay; settings: UO-31, Renal cancer
[21] = system: PC-3; experiment: NCI five-dose assay; settings: PC-3, Prostate cancer
[22] = system: SF-539; experiment: NCI five-dose assay; settings: SF-539, CNS cancer
[23] = system: CCRF-CEM; experiment: NCI five-dose assay; settings: Homo sapiens, Leukemia
[24] = system: Colon cancer subpanel; experiment: NCI five-dose assay, subpanel mean
[25] = system: RXF393; experiment: NCI five-dose assay; settings: RXF393, Renal cancer
[26] = system: SN12C; experiment: NCI five-dose assay; settings: Renal cancer
[27] = system: 786-0; experiment: NCI five-dose assay; settings: 786-0, Renal cancer
[28] = Homo sapiens, 48 h, read-out: LC50 (the source's name)
[29] = Homo sapiens, read-out: GI50 Conc. per Cell Lines

O/N=C(\CSc1nnc(-c2c[nH]c3ccccc23)n1-c1ccccc1)c1ccc(Br)cc1 [Compound 7i, (Z)-2-((5-(1H-Indol-3-yl)-4-phenyl-4H-1,2,4-triazol-3-yl)thio)-1-(4-bromophenyl) Ethanone Oxime]
CC50 [1, 28]: 34.2 µM | GI50 [1, 29]: 2.6 µM | TGI Conc. per Cell Lines [1]: 9.09 µM | TGI Conc. per Cell Lines [2]: 4.08 µM | GI50 [2, 29]: 2.05 µM | CC50 [3, 28]: 84.5 µM | GI50 [3, 29]: 4.32 µM | TGI Conc. per Cell Lines [3]: 19.80 µM | CC50 [4, 28]: > 100 µM | GI50 [4, 29]: 2.45 µM | TGI Conc. per Cell Lines [4]: 6.50 µM | GI50 [5, 29]: 2.14 µM | TGI Conc. per Cell Lines [5]: 4.57 µM | LC50 ([6]; Homo sapiens, 48 h): 24.9 µM | GI50 [6, 29]: 2.53 µM | TGI Conc. per Cell Lines [6]: 7.05 µM | TGI Conc. per Cell Lines [7]: 51.70 µM | LC50 ([7]; Homo sapiens, 48 h): > 100 µM | GI50 [7, 29]: 1.63 µM | TGI Conc. per Cell Lines [8]: 5.03 µM | CC50 ([8]; Homo sapiens, HT-29, 48 h, read-out: LC50 (the source's name)): 17.8 µM | GI50 ([8]; Homo sapiens, HT-29, read-out: GI50 Conc. per Cell Lines): 2.23 µM | CC50 [9, 28]: > 100 µM | GI50 [9, 29]: 4.15 µM | TGI Conc. per Cell Lines [9]: 29.20 µM | CC50 [10, 28]: 62.1 µM | GI50 [10, 29]: 3.28 µM | TGI Conc. per Cell Lines [10]: 12.10 µM | TGI Conc. per Cell Lines [11]: 3.98 µM | GI50 [11, 29]: 1.86 µM | CC50 [12, 28]: 28.1 µM | GI50 [12, 29]: 1.87 µM | TGI Conc. per Cell Lines [12]: 4.95 µM | LC50 ([13]; Homo sapiens, 48 h): > 100 µM | GI50 [13, 29]: 4.98 µM | TGI Conc. per Cell Lines [13]: 23.8 µM | GI50 ([14]; Homo sapiens, average sensitivity of all cell lines of the Prostate cancer subpanel, read-out: GI50 Subpanel MID b): 2.1 µM | GI50 Selectivity Ratio (MID a/MID b) ([14]; Prostate cancer subpanel): 1.33 | CC50 [15, 28]: 68.4 µM | GI50 [15, 29]: 3.53 µM | TGI Conc. per Cell Lines [15]: 12.90 µM | CC50 [16, 28]: 7.57 µM | GI50 [16, 29]: 2.01 µM | TGI Conc. per Cell Lines [16]: 3.89 µM | CC50 [17, 28]: > 100 µM | GI50 [17, 29]: 3.4 µM | TGI Conc. per Cell Lines [17]: 17.60 µM | LC50 ([18]; Homo sapiens, 48 h): 8.08 µM | GI50 [18, 29]: 1.9 µM | TGI Conc. per Cell Lines [18]: 3.92 µM | TGI Conc. per Cell Lines [19]: 8.10 µM | LC50 ([19]; Homo sapiens, 48 h): 38 µM | GI50 [19, 29]: 2.63 µM | CC50 [20, 28]: 34.3 µM | GI50 [20, 29]: 2.29 µM | TGI Conc. per Cell Lines [20]: 7.81 µM | CC50 [21, 28]: > 100 µM | GI50 [21, 29]: 2.15 µM | TGI Conc. per Cell Lines [21]: 4.96 µM | CC50 [22, 28]: 38.4 µM | GI50 [22, 29]: 4.04 µM | TGI Conc. per Cell Lines [22]: 14.20 µM | CC50 ([23]; 48 h, read-out: LC50 (the source's name)): > 100 µM | GI50 ([23]; read-out: GI50 Conc. per Cell Lines): 2.78 µM | GI50 Selectivity Ratio (MID a/MID b) ([24]; Colon cancer subpanel): 0.88 | GI50 ([24]; Homo sapiens, average sensitivity of all cell lines of the Colon cancer subpanel, read-out: GI50 Subpanel MID b): 3.19 µM | LC50 (concentration killing 50% of cells) ([25]; Homo sapiens, RXF 393, 48 h): 7.65 µM | GI50 ([25]; Homo sapiens, RXF 393, read-out: GI50 Conc. per Cell Lines): 1.75 µM | TGI Conc. per Cell Lines [25]: 3.65 µM | CC50 [26, 28]: 30.1 µM | GI50 [26, 29]: 2.52 µM | TGI Conc. per Cell Lines [26]: 7.97 µM | TGI Conc. per Cell Lines [27]: 27.00 µM | LC50 (50% lethal concentration) ([27]; Homo sapiens, 48 h): 93.4 µM | GI50 [27, 29]: 6.85 µM
